One test deals with T1, BRD4 (Homo sapiens, UniProt O60885).
T1 construct: GST-BRD4 (51-462) (purchased from Cisbio); purchased Cisbio
Description: In vitro enzymatic activity assay: inhibition of BRD4 enzyme binding reaction by HTRF. The conditions noted are these: GST-BRD4 (51-462) 1 nM, acetylated short peptide 100 nM, 23° C., 60 min. The procedure:
IC50 values of the compounds of the present application in inhibiting BRD4 enzyme binding reaction were determined by homogeneous time resolved fluorescence (HTRF). A compound was serially diluted 5-fold with 100% DMSO starting from 1 mM (totally 7 concentrations). 2 μL of the compound at each concentration was added into 48 μL of a reaction buffer solution (20 mM HEPES pH7.5, 150 mM NaCl, 5 mM DTT, 0.005% Tween 20 and 100 μg/ml BSA) to be diluted and fully mixed. Then 2.5 μL of the resulting mixture was added to a 384-well plate (OptiPlate-384, purchased from PerkinElmer), 5 μL of GST-BRD4 (51-462) (purchased from Cisbio) (final concentration: 1 nM) was added, and the resulting mixture was centrifuged, and fully mixed. Then 2.5 μL of a short peptide Biotin-AHA-SGRGK(Ac)GGK-(Ac)GLGK(Ac)GGAK(Ac)RHRKV) (synthesized by GL Biochem (Shanghai) Ltd) (final concentration: 100 nM) was added to initiate the reaction (total reaction volume: 10 μL). The 384-well plate was placed in an incubator at 23° C. to react for 60 min, and then 5 μL of Eu3+ cryptate-labeled anti-GST antibody (purchased from Cisbio) and 5 μL of Streptavidin-XL-665 (purchased from Cisbio) were added to terminate the reaction. After an additional 1 hour incubation in the incubator, the fluorescence values (excited at 320 nm, emitted light at 665 nm and 620 nm being detected, and the ratio of the two being the enzyme binding signal) were read on Envision (purchased from PerkinElmer). The binding strength of each compound to the BRD4 protein was determined respectively at 7 concentrations, and the data were calculated with GraphPad Prism software to obtain the IC50 value of the compound.

The test system of a further test is MV4-11 cells. Kind of test: Cell proliferation activity assay (Cell-Titer Blue). The format is cell-based. The conditions noted are these: Homo sapiens, inhibiting cell proliferation, 72 h co-incubation. The procedure: Human acute […] leukemia cell line MV4-11 cells were cultured in PRIM1640 medium plus 10% fetal bovine serum (FBS, purchased from Biological Industries, BI) and 1% penicillin/streptomycin double antibody solution (P/S, purchased from Life Technology) at 37° C. with 5% CO2. On the day before the compound was tested, the MV4-11 cells were spread in a 96-well plate (purchased from Corning) at a concentration of 8,000 cells/195 μL/well. On the next day, the compound was serially diluted 3-fold with 100% DMSO starting from 10 mM (totally 10 concentrations). 2 μL of the resulting mixture at each concentration was diluted with 48 μL of PRIM1640 medium (purchased from Life Technology). 5 μL of the diluted compound at each concentration was added to the spread cell suspension, and the compound and cells were co-incubated in a cell incubator for 72 h (3 days), and then incubated for additional 4 h after adding 35 μL of Cell-Titer Blue reagent (purchased from Promega). Then the fluorescence values (excited at 560 nm, detected at 590 nm) were read on Flexstation III (purchased from Molecular Devices), and the data were calculated with GraphPad Prism software to obtain the IC50 value of the compound in inhibiting cell proliferation.

Broadly, the IC50 is the midpoint of a concentration-inhibition curve. Regarding `COc1ccc2c(n1)c1ncc(-c3c(C)noc3C)cc1n2C(c1ccccc1)C1CCOCC1` (stereo not drawn) [Compound 1, 4-{8-Methoxy-5-[phenyl(tetrahydro-2H-pyran-4-yl)methyl]-5H-pyrrolo[3,2-b:4,5-b′]dipyridin-3-yl}-3,5-dimethylisoxazole], the IC50 on BRD4 was less than 2 nM. Consider `CCOC(=O)c1cc2c(cn1)c1ncc(-c3c(C)noc3C)cc1n2C(c1ccccc1)C1CCOCC1` (stereo not drawn) [Compound 3, Ethyl 3-(3,5-dimethylisoxazol-4-yl)-5-[phenyl(tetrahydro-2H-pyran-4-yl)methyl]-5H-pyrrolo[2,3-b:4,5-c′]dipyridine-7-carboxylate], for which the IC50 on BRD4 was less than 2 nM. Regarding `Cc1noc(C)c1-c1cnc2c3cnc(C(C)(C)O)cc3n(C(c3ccccc3)C3CCOCC3)c2c1` (stereo not drawn) [Compound 4, 2-{3-(3,5-Dimethylisoxazol-4-yl)-5-[phenyl(tetrahydro-2H-pyran-4-yl)methyl]-5H-pyrrolo[3,2-b:4,5-c′]dipyridin-7-yl}propan-2-ol], the IC50 at BRD4 is less than 2 nM; in the test with MV4-11 cells, less than 10 nM. Turning to `Cc1noc(C)c1-c1cnc2c3ccc(C(C)(C)O)nc3n(C(c3ccccc3)C3CCOCC3)c2c1` (stereo not drawn) [Compound 6, 2-{3-(3,5-Dimethylisoxazol-4-yl)-5-[phenyl(tetrahydro-2H-pyran-4-yl)methyl]-5H-pyrrolo[2,3-b:4,5-b′]dipyridin-7-yl}propan-2-ol], the IC50 at BRD4 was less than 2 nM. The same measure, in the same setting: for `CCOC(=O)c1cc2c(cn1)c1ncc(-c3c(C)noc3C)cc1n2[C@H](c1ccccc1)C1CCOCC1` [Compound 9, Ethyl (S)-3-(3,5-dimethylisoxazol-4-yl)-5-[phenyl(tetrahydro-2H-pyran-4-yl)methyl]-5H-pyrrolo[3,2-b:4,5-c′]dipyridine-7-carboxylate] the value was less than 2 nM. On to `Cc1noc(C)c1-c1cnc2c3cnc(C(C)(C)O)cc3n([C@H](c3ccccc3)C3CCOCC3)c2c1` [Compound 10, (S)-2-{3-(3,5-dimethylisoxazol-4-yl)-5-[phenyl(tetrahydro-2H-pyran-4-yl)methyl]-5H-pyrrolo[3,2-b:4,5-c′]dipyridin-7-yl}propan-2-ol], for which the IC50 at BRD4 was less than 2 nM; with MV4-11 cells, less than 10 nM. In the same order, the values of `Cc1noc(C)c1-c1cnc2c3cnc(C(C)(C)O)cc3n([C@@H](c3ccccc3)C3CCOCC3)c2c1` [Compound 12, (R)-2-{3-(3,5-dimethylisoxazol-4-yl)-5-[phenyl(tetrahydro-2H-pyran-4-yl)methyl]-5H-pyrrolo[3,2-b:4,5-c′]dipyridin-7-yl}propan-2-ol] are less than 2 nM and less than 10 nM. Take `Cc1noc(C)c1-c1cnc2c3ccc(C(C)(C)O)nc3n([C@H](c3ccccc3)C3CCOCC3)c2c1` [Compound 16, (S)-2-{3-(3,5-dimethylisoxazol-4-yl)-5-[phenyl(tetrahydro-2H-pyran-4-yl)methyl]-5H-pyrrolo[2,3-b:4,5-b′]dipyridin-7-yl}propan-2-ol]: the IC50 at BRD4 is less than 2 nM; in the test on MV4-11 cells, less than 10 nM. As to `Cc1nnn(C)c1-c1cnc2c3ccc(C(C)(C)O)nc3n(C(c3ccccc3)C3CCOCC3)c2c1` (stereo not drawn) [Compound 20, 2-(3-(1,4-Dimethyl-1H-1,2,3-triazol-5-yl)-5-[phenyl(tetrahydro-2H-pyran-4-yl)methyl]-5H-pyrrolo[2,3-b:4,5-b′]dipyridin-7-yl)propan-2-ol], the IC50 at BRD4 is less than 2 nM. In the case of `Cc1noc(C)c1-c1cnc2c3ncc(C(C)(C)O)cc3n(C(c3ccccc3)C3CCOCC3)c2c1` (stereo not drawn) [Compound 22, 2-(7-(3,5-Dimethylisoxazol-4-yl)-5-(phenyl(tetrahydro-2H-pyran-4-yl)methyl]-5H-pyrrolo[3,2-b:4,5-b′]dipyridin-3-yl)propan-2-ol], the IC50 on BRD4 is less than 2 nM; with MV4-11 cells, less than 10 nM. On the same counts, the results for `Cc1noc(C)c1-c1cc(F)c2c3ncc(C(C)(C)O)cc3n(C(c3ccccc3)C3CCOCC3)c2c1` (stereo not drawn) [Compound 24, 2-{7-(3,5-dimethylisoxazol-4-yl)-9-fluoro-5-[phenyl(tetrahydro-2H-pyran-4-yl)methyl]-5H-pyridino[3,2-b]indol-3-yl}propan-2-ol] are less than 2 nM and less than 10 nM. The compound `Cc1noc(C)c1-c1cnc2c3ccncc3n(C(c3ccccc3)C3CCOCC3)c2c1` (stereo not drawn) [Compound 37, 3,5-Dimethyl-4-{5-[phenyl(tetrahydro-2H-pyran-4-yl)methyl]-5H-pyrrolo[3,2-b:5,4-c′]dipyridin-3-yl}isoxazole] had an IC50 at BRD4 of less than 2 nM. Same read-out and setting: the same measure for `CCCC(CCC)n1c2cc(C(C)(C)O)ncc2c2ncc(-c3c(C)noc3C)cc21` [Compound 39, 2-[3-(3,5-Dimethylisoxazol-4-yl)-5-(heptan-4-yl)-5H-pyrrolo[3,2-b:4,5-c′]dipyridin-7-yl]propan-2-ol]: less than 2 nM; for `Cc1noc(C)c1-c1cnc2c3cnc(C(C)(C)O)cc3n(C(c3ccccc3)c3cscn3)c2c1` (stereo not drawn) [Compound 41, 2-{3-(3,5-Dimethylisoxazol-4-yl)-5-[phenyl(thiazol-4-yl)methyl]-5H-pyrrolo[3,2-b:4,5-c′]dipyridin-7-yl}propan-2-ol]: less than 2 nM.

As for `Cc1noc(C)c1-c1cnc2c3ccc(O)nc3n(C(c3ccccc3)C3CCOCC3)c2c1` (stereo not drawn) [Compound 43, 3-(3,5-Dimethylisoxazol-4-yl)-5-[phenyl(tetrahydro-2H-pyran-4-yl)methyl]-5H-pyrrolo[2,3-b:4,5-b′]dipyridine-7-ol], the values for the 50% inhibitory concentration (IC50) at BRD4 and in the test with MV4-11 cells were less than 2 nM and less than 10 nM, respectively.

As for `Cc1noc(C)c1-c1cnc2c3ccc(C(N)=O)nc3n(C(c3ccccc3)C3CCOCC3)c2c1` (stereo not drawn) [Compound 50, 3-(3,5-Dimethylisoxazol-4-yl)-5-[phenyl(tetrahydro-2H-pyran-4-yl)methyl]-5H-pyrrolo [2,3-b:4,5-b′]dipyridine-7-carboxamide], the figures for the IC50 on BRD4 and in the test with MV4-11 cells were less than 2 nM and less than 10 nM, respectively. In the same order, the values of `Cc1noc(C)c1-c1cnc2c3ccc(N)nc3n(C(c3ccccc3)C3CCOCC3)c2c1` (stereo not drawn) [Compound 52, 3-(3,5-Dimethylisoxazol-4-yl)-5-[phenyl(tetrahydro-2H-pyran-4-yl)methyl]-5H-pyrrolo[2,3-b:4,5-b′]dipyridine-7-amine] are less than 2 nM and less than 10 nM. `CON(C)C(=O)c1ccc2c3ncc(-c4c(C)noc4C)cc3n(C(c3ccccc3)C3CCOCC3)c2n1` (stereo not drawn) [Compound 55, 3-(3,5-Dimethylisoxazol-4-yl)-N-methoxy-N-methyl-5-[phenyl(tetrahydro-2H-pyran-4-yl)methyl]-5H-pyrrolo[2,3-b:4,5-b′]dipyridine-7-carboxamide] gave an IC50 on BRD4 of less than 2 nM.

In the case of `CC(=O)c1ccc2c3ncc(-c4c(C)noc4C)cc3n(C(c3ccccc3)C3CCOCC3)c2n1` (stereo not drawn) [Compound 56, 1-{3-(3,5-Dimethylisoxazol-4-yl)-5-[phenyl(tetrahydro-2H-pyran-4-yl)methyl]-5H-pyrrolo[2,3-b:4,5-b′]dipyridin-7-yl}ethyl-1-one], the IC50 at BRD4 was less than 2 nM. For the compound `Cc1noc(C)c1-c1cnc2c3ccc(C(C)O)nc3n(C(c3ccccc3)C3CCOCC3)c2c1` (stereo not drawn) [Compound 57, 1-{3-(3,5-Dimethylisoxazol-4-yl)-5-[phenyl(tetrahydro-2H-pyran-4-yl)methyl]-5H-pyrrolo[2,3-b:4,5-b′]dipyridin-7-yl}ethan-1-ol], at BRD4, the IC50 is less than 2 nM.

Regarding `Cc1noc(C)c1-c1cnc2c3ccc(C(C)(C)O)nc3n(C(c3ncccc3F)C3CCOCC3)c2c1` (stereo not drawn) [Compound 60], the concentration for half-maximal inhibition (IC50) on BRD4 is less than 2 nM.

For the origin of these results see patent publication US20190040063A1, “TRICYCLIC COMPOUND FOR BROMODOMAIN-CONTAINING PROTEIN INHIBITOR AND PREPARATION PHARMACEUTICAL COMPOSITION, AND APPLICATION THEREOF” (CHIA TAI TIANQING PHARMACEUTICAL GROUP CO., LTD., priority 2016, published 2019).
